Results on one compound are retold here after patent US20240352494A1, “HETEROLOGOUS PRODUCTION OF […] YEASTS” (ADAMA CHILE SA, priority 2021, published 2024).

The test system of this test is A. thaliana seedlings. The test is described as follows: hypocotyl length assay (inhibition of hypocotyl elongation). In kind it is in vivo, A. thaliana Col-0. Particulars: tZ standard at 0.14, 0.28 and 0.56 mg/L (mean of all treatments, no significant difference between them); seedlings grown in darkness, measured after 8 days.

Experimental: The bioactivity of the produced cytokinins was tested in A. thaliana by hypocotyl length assay. This assay is based on the capacity of cytokinins to inhibit hypocotyl elongation in A. thaliana seedlings (Cary et al., 1995, Plant Physiol., 107 (4): 1075-1082). Seeds of A. thaliana Col-0 were surface sterilized, sown on 0.5× Murashige and Skoog (MS) medium (Murashige and Skoog, 1962, Physiol. Plant., 15(13):473-497) (0.7% agar) without sucrose, and stratified in darkness for 3 days at 4° C. Seedlings were grown in complete darkness in a growth cabinet at 21°° C. Hypocotyl lengths were determined after 8 days of growth, and at least 15 seedlings were measured for each treatment.

Take `C/C(=C\CNc1ncnc2nc[nH]c12)CO` [tZ standard, trans-zeatin]: the “mean reduction in hypocotyl lengths” value turned out to be 58%.
